Laboratory results from paper PMC11648915, “Identification and development of TRPM4 antagonists to counteract neuronal excitotoxicity” (iScience, 2024).
pIC50: −log10 of the molar value. Like-named read-outs stand apart in the source and are kept apart here.

What was measured:
CYP 2C9 = target: T1, CYP 2C9 (Homo sapiens, UniProt P11712); assay: CYP inhibition assay 2C9; type: in vitro ADME
T1 construct: purchased BD Gentest
Experimental: (§1) The half-maximal inhibitory concentration (IC50) for cytochrome P450 (CYP) enzymes was determined using an in vitro enzyme inhibition assay. Recombinant CYP enzymes or human liver microsomes from BD Gentest, in 0.1 M phosphate buffer pH 7.4, containing native CYP enzymes were incubated with the test compound at various concentrations (1, 3, 10 and 30 μM) and containing 0.5% DMSO and 0.1% BSA final concentrations. 1 mM of NADPH cofactor was added and the reaction was started by a rapid increase of temperature until 37°C.

CYP 2C19 = target: T2, CYP 2C19 (Homo sapiens, UniProt P33261); assay: CYP inhibition assay 2C19; type: in vitro ADME
T2 construct: purchased BD Gentest
T2 sequence (P33261 whole entry): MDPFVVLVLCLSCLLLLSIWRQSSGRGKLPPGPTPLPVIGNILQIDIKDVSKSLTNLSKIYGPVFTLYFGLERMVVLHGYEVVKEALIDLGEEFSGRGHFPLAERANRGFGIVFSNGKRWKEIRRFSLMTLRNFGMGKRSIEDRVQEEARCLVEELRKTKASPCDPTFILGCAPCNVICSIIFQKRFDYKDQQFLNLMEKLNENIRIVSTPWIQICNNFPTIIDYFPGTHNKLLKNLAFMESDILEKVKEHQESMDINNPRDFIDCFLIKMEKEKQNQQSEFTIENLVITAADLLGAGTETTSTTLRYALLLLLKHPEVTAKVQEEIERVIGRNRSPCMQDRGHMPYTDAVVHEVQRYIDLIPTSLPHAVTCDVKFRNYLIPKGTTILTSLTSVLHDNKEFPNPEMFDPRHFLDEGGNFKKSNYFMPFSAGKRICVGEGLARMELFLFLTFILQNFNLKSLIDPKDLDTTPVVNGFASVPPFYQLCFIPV
Experimental: as §1

[1] = In vivo pharmacokinetics after single i.p. or i.v. dose; conditions: female, C57BL/6J, mouse
Experimental: Next, to assess in vivo availability of the Series 1–3 compounds, we evaluated drug metabolism and pharmacokinetics (DMPK). We measured compound concentrations in plasma, heart, and brain at several time points after intraperitoneal (i.p.) or intravenous (i.v.) single-dose injections.
Half-life and bioavailability were calculated by noncompartmental analysis using the R package PK[84] (v1.3-6).

mouse TRPM4 = target: T3, mouse TRPM4 (Mus musculus, UniProt Q7TN37); assay: Inside-out patch clamp, mouse TRPM4; type: cell-based; conditions: inside-out patch clamp configuration
T3 construct: Human TRPM4 (UniProtKB: Q8TD43-1) and mouse Trpm4 (UniProtKB: Q7TN37-1) were amplified via PCR; eGFP (C); expressed in transfected cells
T3 sequence (Q7TN37 whole entry): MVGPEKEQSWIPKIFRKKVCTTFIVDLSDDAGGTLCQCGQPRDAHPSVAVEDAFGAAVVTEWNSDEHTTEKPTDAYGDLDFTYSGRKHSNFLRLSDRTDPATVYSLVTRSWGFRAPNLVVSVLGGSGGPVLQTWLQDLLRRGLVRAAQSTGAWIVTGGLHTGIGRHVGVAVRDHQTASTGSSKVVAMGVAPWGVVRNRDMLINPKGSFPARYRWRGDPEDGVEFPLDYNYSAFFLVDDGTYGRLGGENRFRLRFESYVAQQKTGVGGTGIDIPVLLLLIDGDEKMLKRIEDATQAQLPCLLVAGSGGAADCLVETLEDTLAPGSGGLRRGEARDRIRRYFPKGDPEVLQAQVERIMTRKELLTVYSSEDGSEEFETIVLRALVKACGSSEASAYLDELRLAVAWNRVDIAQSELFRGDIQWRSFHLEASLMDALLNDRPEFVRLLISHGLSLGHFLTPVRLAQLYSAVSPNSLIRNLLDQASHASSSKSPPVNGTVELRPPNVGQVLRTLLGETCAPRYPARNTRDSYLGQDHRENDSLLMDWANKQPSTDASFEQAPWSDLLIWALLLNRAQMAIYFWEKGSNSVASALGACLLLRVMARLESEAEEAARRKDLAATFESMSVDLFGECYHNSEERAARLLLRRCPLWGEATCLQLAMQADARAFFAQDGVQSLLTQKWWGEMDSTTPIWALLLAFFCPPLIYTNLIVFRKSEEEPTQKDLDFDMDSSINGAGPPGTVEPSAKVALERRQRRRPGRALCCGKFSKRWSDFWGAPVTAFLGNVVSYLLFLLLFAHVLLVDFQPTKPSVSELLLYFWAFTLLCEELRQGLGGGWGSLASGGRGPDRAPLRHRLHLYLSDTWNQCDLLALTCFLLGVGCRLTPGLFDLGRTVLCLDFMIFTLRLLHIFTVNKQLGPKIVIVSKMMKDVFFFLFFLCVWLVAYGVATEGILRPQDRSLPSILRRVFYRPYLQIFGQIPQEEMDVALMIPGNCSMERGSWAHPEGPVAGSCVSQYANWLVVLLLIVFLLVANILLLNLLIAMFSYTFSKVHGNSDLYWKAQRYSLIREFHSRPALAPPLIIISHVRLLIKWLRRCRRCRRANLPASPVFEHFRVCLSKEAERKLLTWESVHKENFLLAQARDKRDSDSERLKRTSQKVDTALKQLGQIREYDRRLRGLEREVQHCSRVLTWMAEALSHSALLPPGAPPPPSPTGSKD

[2] = test system: hsTRPM4 L907A, S924A and L907A/S924A mutants; assay: Whole-cell patch clamp of wild-type and binding-site mutant hsTRPM4; conditions: whole-cell voltage clamp, HEK293T
From the text: Initially, we assessed the basic properties of the hsTRPM4 mutants using whole-cell patch clamp electrophysiology.

human TRPM4 = human TRPM4 (Homo sapiens, UniProt Q8TD43); assay: Inside-out patch clamp, human TRPM4; type: cell-based; set-up: Human TRPM4 (UniProtKB: Q8TD43-1) and mouse Trpm4 (UniProtKB: Q7TN37-1) were amplified via PCR; expressed in transfected cells; conditions: inside-out patch clamp configuration
human TRPM4, sequence (Q8TD43 whole entry): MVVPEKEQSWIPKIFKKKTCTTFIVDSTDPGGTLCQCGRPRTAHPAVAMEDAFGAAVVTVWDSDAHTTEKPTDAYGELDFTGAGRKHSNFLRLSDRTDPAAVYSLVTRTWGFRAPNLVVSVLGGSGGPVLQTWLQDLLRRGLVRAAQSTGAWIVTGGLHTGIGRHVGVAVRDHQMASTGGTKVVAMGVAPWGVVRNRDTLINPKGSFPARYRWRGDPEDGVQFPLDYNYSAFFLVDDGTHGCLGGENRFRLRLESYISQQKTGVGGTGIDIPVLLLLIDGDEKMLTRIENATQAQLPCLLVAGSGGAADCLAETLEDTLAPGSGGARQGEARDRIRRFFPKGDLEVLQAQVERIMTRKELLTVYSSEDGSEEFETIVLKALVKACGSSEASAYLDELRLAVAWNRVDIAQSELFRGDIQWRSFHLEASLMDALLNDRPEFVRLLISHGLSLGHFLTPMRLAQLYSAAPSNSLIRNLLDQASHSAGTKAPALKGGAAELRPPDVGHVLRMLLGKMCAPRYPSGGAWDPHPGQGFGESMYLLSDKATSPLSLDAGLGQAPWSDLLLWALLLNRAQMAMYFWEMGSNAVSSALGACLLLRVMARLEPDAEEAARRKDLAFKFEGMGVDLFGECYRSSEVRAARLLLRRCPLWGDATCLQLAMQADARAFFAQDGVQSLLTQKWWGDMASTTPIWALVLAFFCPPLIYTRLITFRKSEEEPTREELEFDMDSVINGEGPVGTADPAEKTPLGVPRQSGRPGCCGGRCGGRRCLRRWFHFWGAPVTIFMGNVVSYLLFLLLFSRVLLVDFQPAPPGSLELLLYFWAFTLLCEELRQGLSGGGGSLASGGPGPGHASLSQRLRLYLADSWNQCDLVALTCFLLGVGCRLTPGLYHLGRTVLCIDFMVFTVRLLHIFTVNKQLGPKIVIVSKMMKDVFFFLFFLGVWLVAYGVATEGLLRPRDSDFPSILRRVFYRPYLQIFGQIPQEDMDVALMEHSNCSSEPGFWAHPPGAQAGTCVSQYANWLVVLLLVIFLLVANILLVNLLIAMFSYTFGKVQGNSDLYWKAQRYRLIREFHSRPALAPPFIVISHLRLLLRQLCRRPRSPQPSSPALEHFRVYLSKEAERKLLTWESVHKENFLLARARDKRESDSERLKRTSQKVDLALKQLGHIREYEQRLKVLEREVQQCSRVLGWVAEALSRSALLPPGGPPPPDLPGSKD
Experimental: Patch clamp recordings were conducted using an EPC10 patch clamp amplifier and Patchmaster software (HEKA, Germany). An Ag/AgCl wire served as the reference electrode in all experiments. […] Liquid junction potential was compensated before achieving gigaseal formation. All experiments were conducted at room temperature. Whole-cell currents were recorded in transiently transfected HEK293 cells expressing either wildtype human TRPM4, TRPM4-L907A, or TRPM4-S924A. Recordings involved a 400 ms increasing voltage ramp from –100 mV to +100 mV, initiated from a holding potential of 0 mV. The interval between each sweep was 2 seconds, with data sampled at 5 kHz. […] To identify TRPM4 currents, extracellular Na^+ was replaced with equimolar NMDG^+. […] Similar to whole-cell recordings, a 400 ms increasing voltage ramp from –100 mV to +100 mV was applied from a holding potential of 0 mV. The interval between sweeps was 2 seconds, and data were sampled at 5 kHz. […] TRPM4 currents were activated by 500 μM CaCl2 and deactivated by 10 mM EGTA, both added to the intracellular solution. Ca^2+ activation curves were fitted using a likelihood maximization algorithm to estimate the parameters for the sigmoidal fitting curves y-maximum, slope and midpoint as part of the R package sicegar (V0.2.4).

T1 sequence (P11712 whole entry): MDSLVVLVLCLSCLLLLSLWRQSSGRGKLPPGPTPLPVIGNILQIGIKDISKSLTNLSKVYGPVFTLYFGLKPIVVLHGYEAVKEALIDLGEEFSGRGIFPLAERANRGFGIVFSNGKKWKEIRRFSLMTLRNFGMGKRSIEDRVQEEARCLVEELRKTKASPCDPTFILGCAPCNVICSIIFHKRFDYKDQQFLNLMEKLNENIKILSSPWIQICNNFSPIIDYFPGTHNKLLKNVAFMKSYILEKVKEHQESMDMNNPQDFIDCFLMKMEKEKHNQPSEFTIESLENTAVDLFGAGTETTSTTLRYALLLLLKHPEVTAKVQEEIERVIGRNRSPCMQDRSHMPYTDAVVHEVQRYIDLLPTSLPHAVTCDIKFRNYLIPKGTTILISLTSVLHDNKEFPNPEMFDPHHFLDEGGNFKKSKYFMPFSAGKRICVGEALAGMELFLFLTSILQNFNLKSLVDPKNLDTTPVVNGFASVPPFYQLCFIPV

pIC50 (CYP 2C9) | pIC50 (CYP 2C19) | Structure (SMILES) | half-life ([1]; brain, ip, read-out: Brain half-life (converted)) [h] | half-life ([1]; brain, iv, read-out: Brain half-life (converted)) [h] | half-life ([1]; heart, ip, read-out: Heart half-life (converted)) [h] | half-life ([1]; heart, iv, read-out: Heart half-life (converted)) [h] | half-life ([1]; plasma, ip, read-out: Plasma half-life (converted)) [h] | half-life ([1]; plasma, iv, read-out: Plasma half-life (converted)) [h] | Activity on mouse TRPM4 (mouse TRPM4) | Activity on mouse TRPM4 (mouse TRPM4; listed as 343) | Current inhibition of hsTRPM4 L907A and S924A mutants versus wildtype [2] | Activity on human TRPM4 (human TRPM4)
4.83 | 5.21 | c1csc(-c2ccccc2NCc2nc3ccccc3o2)c1 [CMP355] | – | – | – | – | – | – | – | – | – | –
– | – | Fc1cccc(-c2ccccc2NCc2nc3ccccc3o2)c1 [CMP343] | 2.1 | 0.2 | 15.3 | 2.1 | 4.3 | 0.3 | reduced activity on mouse TRPM4 compared to human TRPM4 | significantly less effective on mouse TRPM4 | significantly reduced current inhibition in at least one hsTRPM4 mutant variant | almost completely blocked
